Reference: patent US7396837B2, “Antitumoral analogs of lamellarins” (Pharma Mar, S.A.U., priority 2002, dated 2008)

What was measured:
Assay type in all cases: cell-based
SKOV-3 = assay: SRB colorimetric cell growth inhibition assay, SKOV-3; conditions: Homo sapiens
Description: Inhibition of Cell Growth by Colorimetric Assay.
A colorimetric type of assay, using sulforhodamine B (SRB) reaction has been adapted for a quantitative measurement of cell growth and viability (following the technique described by P. A. Skehan, et al., J. Natl. Cancer Inst. 1990, 82, 1107-1112).
This form of assay employs 96 well cell culture microplates of 9 mm diameter (T. Mosmann et al., J. of Immunological Methods 1983, 65, 55-63; G. T. Faircloth et al., J. of Tissue and Culture Methods 1988, 11, 201-205).
Most of the cell lines are obtained from American Type Culture Collection (ATCC) derived from different human cancer types.
The values for mean +/− SD of data from triplicate wells are calculated. Some parameters for cellular responses can be calculated: GI=growth inhibition, TGI=total growth inhibition (cytostatic effect) and LC=cell killing (cytotoxic effect).

SK-BR-3 = assay: SRB colorimetric cell growth inhibition assay, SK-BR-3; conditions: Homo sapiens
Outline: (§1)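 Cells are kept under uninterrupted exposure to compound. Staining with sulforhodamine B then measures cell growth and viability. Triplicate data give mean ± SD, from which growth inhibition, total growth inhibition and lethal concentration values follow.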

LoVo-Dox = assay: SRB colorimetric cell growth inhibition assay, LoVo-Dox (MDR); conditions: Homo sapiens
Outline: as §1

IGROV-ET = assay: SRB colorimetric cell growth inhibition assay, IGROV-ET (ET-743 resistant); conditions: Homo sapiens
Outline: as §1

LoVo = assay: SRB colorimetric cell growth inhibition assay, LoVo; conditions: Homo sapiens
Outline: as §1

K-562 = assay: SRB colorimetric cell growth inhibition assay, K-562; conditions: Homo sapiens
Outline: as §1

PANC-1 = assay: SRB colorimetric cell growth inhibition assay, PANC-1; conditions: Homo sapiens
Outline: as §1

SK-MEL-28 = assay: SRB colorimetric cell growth inhibition assay, SK-MEL-28; conditions: Homo sapiens
Outline: as §1

HT-29 = assay: SRB colorimetric cell growth inhibition assay, HT-29; conditions: Homo sapiens
Outline: as §1

IGROV = assay: SRB colorimetric cell growth inhibition assay, IGROV; conditions: Homo sapiens, IGROV
Outline: as §1

A-549 = assay: SRB colorimetric cell growth inhibition assay, A-549; conditions: Homo sapiens
Outline: as §1

DU-145 = assay: SRB colorimetric cell growth inhibition assay, DU-145; conditions: Homo sapiens
Outline: as §1

In the case of COc1cc(-c2c3c4cc(OC)c(OC(=O)[C@@H](N)CCCCNC(=O)OCc5ccccc5)cc4oc(=O)c3n3ccc4c(OC(=O)[C@@H](N)CCCCNC(=O)OCc5ccccc5)c(OC)c(OC)cc4c23)ccc1OC(=O)[C@@H](N)CCCCNC(=O)OCc1ccccc1 [Compound 44], the GI50 (SKOV-3; SK-OV-3, read-out: GI50 SKOV-3) was 0.0988 µM, the CC50 (SKOV-3; SK-OV-3, read-out: LC50 SKOV-3) was 7.6 µM and the IC (TGI) (SKOV-3; SK-OV-3, read-out: TGI SKOV-3, SKOV-3, TGI=total growth inhibition (cytostatic effect)) was 1.15 µM. The CC50 (SK-BR-3; SK-BR-3, read-out: LC50 SK-BR-3, SK-BR-3, LC=cell killing (cytotoxic effect)) was 7.6 µM, the GI50 (SK-BR-3; SK-BR-3, GI=growth inhibition, read-out: GI50 SK-BR-3) was 0.122 µM and the IC (TGI) (SK-BR-3; SK-BR-3, TGI=total growth inhibition (cytostatic effect), read-out: TGI SK-BR-3) was 0.866 µM. For the same molecule, the GI50 (LoVo-Dox; LOVO-DOX, GI=growth inhibition, read-out: GI50 LOVO-DOX) was 0.608 µM, the CC50 (LoVo-Dox; read-out: LC50 LOVO-DOX, LOVO-DOX, LC=cell killing (cytotoxic effect)) was 7.6 µM and the IC (TGI) (LoVo-Dox; LOVO-DOX, TGI=total growth inhibition (cytostatic effect), read-out: TGI LOVO-DOX) was 2.51 µM. For the same molecule, the GI50 (IGROV-ET; IGROV-ET, GI=growth inhibition, read-out: GI50 IGROV-ET) was 1.18 µM, the IC (TGI) (IGROV-ET; IGROV-ET, TGI=total growth inhibition (cytostatic effect), read-out: TGI IGROV-ET) was 3.58 µM and the CC50 (IGROV-ET; read-out: LC50 IGROV-ET, IGROV-ET, LC=cell killing (cytotoxic effect)) was 7.6 µM. For the same molecule, the CC50 (LoVo; LoVo, read-out: LC50 LOVO, LOVO, LC=cell killing (cytotoxic effect)) was 7.6 µM, the GI50 (LoVo; LOVO, GI=growth inhibition, read-out: GI50 LOVO) was 0.374 µM and the IC (TGI) (LoVo; LOVO, TGI=total growth inhibition (cytostatic effect), read-out: TGI LOVO) was 3.18 µM. For the same molecule, the GI50 (K-562; K562, K-562, GI=growth inhibition, read-out: GI50 K-562) was 0.182 µM, the IC (TGI) (K-562; K562, K-562, TGI=total growth inhibition (cytostatic effect), read-out: TGI K-562) was 0.686 µM and the CC50 (K-562; K562, read-out: LC50 K-562, K-562, LC=cell killing (cytotoxic effect)) was 5.36 µM. The IC (TGI) (PANC-1; PANC-1, PANC-1, TGI=total growth inhibition (cytostatic effect), read-out: TGI PANC-1) was 4.35 µM, the CC50 (PANC-1; PANC-1, read-out: LC50 PANC-1, PANC-1, LC=cell killing (cytotoxic effect)) was 7.6 µM and the GI50 (PANC-1; PANC-1, GI=growth inhibition, read-out: GI50 PANC-1) was 1.17 µM. It also gave a GI50 (SK-MEL-28; SK-MEL-28, MEL-28, GI=growth inhibition, read-out: GI50 MEL-28) of 0.48 µM, a CC50 (SK-MEL-28; SK-MEL-28, read-out: LC50 MEL-28, MEL-28, LC=cell killing (cytotoxic effect)) of 7.6 µM and an IC (TGI) (SK-MEL-28; SK-MEL-28, MEL-28, TGI=total growth inhibition (cytostatic effect), read-out: TGI MEL-28) of 3.21 µM. The CC50 (HT-29; HT-29, read-out: LC50 HT-29, HT-29, LC=cell killing (cytotoxic effect)) was 7.6 µM, the GI50 (HT-29; HT-29, GI=growth inhibition, read-out: GI50 HT-29) was 7.6 µM and the IC (TGI) (HT-29; HT-29, TGI=total growth inhibition (cytostatic effect), read-out: TGI HT-29) was 7.6 µM. It also gave a CC50 (IGROV; read-out: LC50 IGROV, IGROV, LC=cell killing (cytotoxic effect)) of 5.06 µM, a GI50 (IGROV; GI=growth inhibition, read-out: GI50 IGROV) of 1.06 µM and an IC (TGI) (IGROV; TGI=total growth inhibition (cytostatic effect), read-out: TGI IGROV) of 2.32 µM. The GI50 (A-549; A549, A-549, GI=growth inhibition, read-out: GI50 A-549) was 5.44 µM, the IC (TGI) (A-549; A549, A-549, TGI=total growth inhibition (cytostatic effect), read-out: TGI A-549) was 7.6 µM and the CC50 (A-549; A549, read-out: LC50 A-549, A-549, LC=cell killing (cytotoxic effect)) was 7.6 µM. For the same molecule, the CC50 (DU-145; DU-145, read-out: LC50 DU-145, DU-145, LC=cell killing (cytotoxic effect)) was 7.6 µM, the GI50 (DU-145; DU-145, GI=growth inhibition, read-out: GI50 DU-145) was 0.0485 µM and the IC (TGI) (DU-145; DU-145, TGI=total growth inhibition (cytostatic effect), read-out: TGI DU-145) was 0.273 µM.
